Experimental data as given in ChEMBL document CHEMBL3877300, “Design, synthesis, docking studies and biological evaluation of novel dihydro-1,3,5-triazines as human DHFR inhibitors” (Eur J Med Chem, 2017).

Assays:
[1] = Antiproliferative activity against human HL60 cells after 72 hrs by MTT assay; assay type: functional, cell-based; conditions: HL-60, 72 h
[2] = Antiproliferative activity against human MDA-MB-231 cells after 72 hrs by MTT assay; assay type: functional, cell-based; conditions: MDA-MB-231, 72 h
Dihydrofolate reductase = target: T1, Dihydrofolate reductase (Homo sapiens, UniProt P00374); experiment: Inhibition of recombinant human DHFR using DHF as substrate measured every 5 sec over 6 mins in presence of NADPH by UV-Visible spectrophotometric method relative to control
T1 sequence (P00374 whole entry): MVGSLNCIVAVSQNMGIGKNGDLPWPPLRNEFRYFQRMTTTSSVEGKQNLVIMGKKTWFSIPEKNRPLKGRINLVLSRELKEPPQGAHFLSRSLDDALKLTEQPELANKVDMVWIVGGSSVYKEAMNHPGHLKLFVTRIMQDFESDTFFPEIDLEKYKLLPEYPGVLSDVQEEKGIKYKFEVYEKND

cells [3] = conditions: Homo sapiens, A549, 72 h
Description: Antiproliferative activity against human A549 cells after 72 hrs by MTT assay

[4] = Antiproliferative activity against human HepG2 cells after 72 hrs by MTT assay; assay type: functional, cell-based; conditions: HepG2, 72 h
cells [5] = conditions: Homo sapiens, HCT-116, 72 h
Description: Antiproliferative activity against human HCT116 cells after 72 hrs by MTT assay

[6] = Antitumor activity against human A549 cells xenografted in BALB/c nude mouse assessed as tumor growth inhibition at 50 mg/kg, ip administered 14 times in 22 days measured on day 8 post dose relative to control; assay type: functional; conditions: read-out: TGI
[7] = Antitumor activity against human A549 cells xenografted in BALB/c nude mouse assessed as tumor volume at 50 mg/kg, ip administered 14 times in 22 days measured on day 4 post dose (reference value: 207.73 +/- 56.48 mm3); assay type: functional
[8] = Antitumor activity against human A549 cells xenografted in BALB/c nude mouse assessed as tumor volume at 50 mg/kg, ip administered 14 times in 22 days measured on day 8 post dose (reference value: 288.71 +/- 54.75 mm3); assay type: functional
Mus musculus [9] = experiment: Toxicity in BALB/c nude mouse xenografted with human A549 cells assessed as body weight at 50 mg/kg, ip administered 14 times in 22 days measured on day 22 post dose (reference value: 25.59 +/- 1.16 g); assay type: organism-based; conditions: in vivo, 528 h
[10] = Antitumor activity against human A549 cells xenografted in BALB/c nude mouse assessed as tumor growth inhibition at 50 mg/kg, ip administered 14 times in 22 days measured on day 22 post dose relative to control; assay type: functional; conditions: 528 h, read-out: TGI
[11] = Antitumor activity against human A549 cells xenografted in BALB/c nude mouse assessed as tumor volume at 50 mg/kg, ip administered 14 times in 22 days measured on day 11 post dose (reference value: 373.93 +/- 59.98 mm3); assay type: functional
Mus musculus [12] = experiment: Toxicity in BALB/c nude mouse xenografted with human A549 cells assessed as body weight at 50 mg/kg, ip administered 14 times in 22 days measured on day 8 post dose (reference value: 25.19 +/- 1.38 g); assay type: organism-based; conditions: in vivo, 528 h
[13] = Antitumor activity against human A549 cells xenografted in BALB/c nude mouse assessed as tumor volume at 50 mg/kg, ip administered 14 times in 22 days measured on day 18 post dose (reference value: 692.11 +/- 102.17 mm3); assay type: functional
[14] = Antitumor activity against human A549 cells xenografted in BALB/c nude mouse assessed as tumor volume at 50 mg/kg, ip administered 14 times in 22 days measured on day 1 post dose (reference value: 117.71 +/- 7.29 mm3); assay type: functional
Mus musculus [15] = experiment: Toxicity in BALB/c nude mouse xenografted with human A549 cells assessed as body weight at 50 mg/kg, ip administered 14 times in 22 days measured on day 1 post dose (reference value: 24.73 +/- 1.33 g); assay type: organism-based; conditions: in vivo, 528 h
[16] = Antitumor activity against human A549 cells xenografted in BALB/c nude mouse assessed as tumor growth inhibition at 50 mg/kg, ip administered 14 times in 22 days measured on day 11 post dose relative to control; assay type: functional; conditions: read-out: TGI
[17] = Antitumor activity against human A549 cells xenografted in BALB/c nude mouse assessed as tumor growth inhibition at 50 mg/kg, ip administered 14 times in 22 days measured on day 18 post dose relative to control; assay type: functional; conditions: read-out: TGI
[18] = Antitumor activity against human A549 cells xenografted in BALB/c nude mouse assessed as tumor volume at 50 mg/kg, ip administered 14 times in 22 days measured on day 15 post dose (reference value: 502.27 +/- 69.26 mm3); assay type: functional
Mus musculus [19] = experiment: Toxicity in BALB/c nude mouse xenografted with human A549 cells assessed as body weight at 50 mg/kg, ip administered 14 times in 22 days measured on day 15 post dose (reference value: 25.41 +/- 1.04 g); assay type: organism-based; conditions: in vivo, 528 h
[20] = Antitumor activity against human A549 cells xenografted in BALB/c nude mouse assessed as tumor volume at 50 mg/kg, ip administered 14 times in 22 days measured on day 22 post dose (reference value: 912.28 +/- 140.04 mm3); assay type: functional
Mus musculus [21] = experiment: Toxicity in BALB/c nude mouse xenografted with human A549 cells assessed as body weight at 50 mg/kg, ip administered 14 times in 22 days measured on day 11 post dose (reference value: 24.99 +/- 0.97 g); assay type: organism-based; conditions: in vivo, 528 h
[22] = Antitumor activity against human A549 cells xenografted in BALB/c nude mouse assessed as tumor growth inhibition at 50 mg/kg, ip administered 14 times in 22 days measured on day 4 post dose relative to control; assay type: functional; conditions: read-out: TGI
[23] = Antitumor activity against human A549 cells xenografted in BALB/c nude mouse assessed as tumor growth inhibition at 50 mg/kg, ip administered 14 times in 22 days measured on day 15 post dose relative to control; assay type: functional; conditions: read-out: TGI
Mus musculus [24] = experiment: Toxicity in BALB/c nude mouse xenografted with human A549 cells assessed as body weight at 50 mg/kg, ip administered 14 times in 22 days measured on day 4 post dose (reference value: 24.84 +/- 1.22 g); assay type: organism-based; conditions: in vivo, 528 h
Mus musculus [25] = experiment: Toxicity in BALB/c nude mouse xenografted with human A549 cells assessed as body weight at 50 mg/kg, ip administered 14 times in 22 days measured on day 18 post dose (reference value: 25.66 +/- 1.16 g); assay type: organism-based; conditions: in vivo, 528 h

| Compound | IC50 [1] [nM] | IC50 ([2]; read-out: IC50) [nM] | IC50 (Dihydrofolate reductase) [nM] | IC50 (cells [3]) [nM] | IC50 [4] [nM] | IC50 (cells [5]) [nM] | further results |
| --- | --- | --- | --- | --- | --- | --- | --- |
| NC1=NC2(CCCCC2)N(OCCCOc2ccc(Cl)cc2)C(N)=N1 | 580 | 1210 | 49 | 990 | 2330 | 380 | – |
| NC1=NC2(CCSCC2)N(OCCCOc2ccc(Cl)c(Cl)c2)C(N)=N1 | 140 | 10 | – | 1 | 70 | 1 | – |
| NC1=NC2(CCOCC2)N(OCCCOc2ccc(Br)cc2)C(N)=N1 | 310 | – | 32.5 | 280 | – | 320 | – |
| NC1=NC2(CCOCC2)N(OCCCOc2cc(Cl)c(Cl)cc2Cl)C(N)=N1 | 2360 | – | 36 | 680 | – | 2750 | – |
| NC1=NC2(CCSCC2)N(OCCCOc2ccccc2Br)C(N)=N1 | 180 | 10 | – | 40 | 90 | 1 | – |
| NC1=NC2(CCOCC2)N(OCCCOc2ccc(Cl)cc2)C(N)=N1 | 330 | – | 33.6 | 360 | – | 690 | – |
| NC1=NC2(CCSCC2)N(OCCCOc2ccccc2Cl)C(N)=N1 | 390 | 80 | – | 80 | 80 | 1 | – |
| COc1ccc(OCCCON2C(N)=NC(N)=NC23CCOCC3)cc1 | 1670 | – | 11.1 | 660 | – | 1500 | – |
| COc1ccc(OCCCON2C(N)=NC(N)=NC23CCSCC3)cc1 | 500 | 350 | – | 240 | 880 | 70 | – |
| NC1=NC2(CCSCC2)N(OCCCOc2cc(Cl)c(Cl)cc2Cl)C(N)=N1 | 730 | 110 | – | > 100000 | > 100000 | 1 | – |
| NC1=NC2(CCOCC2)N(OCCCOc2cccc(Cl)c2Cl)C(N)=N1 | 440 | 140 | – | 100 | 330 | 5 | – |
| NC1=NC2(CCSCC2)N(OCCCOc2cccc(Cl)c2Cl)C(N)=N1 | 30 | 1 | – | 1 | 50 | 1 | – |
| NC1=NC2(CCOCC2)N(OCCCOc2ccccc2)C(N)=N1 | 2460 | – | 86.1 | 1080 | – | 6010 | – |
| Br.NC1=NC2(CCOCC2)N(OCCCOc2ccc(Cl)cc2Cl)C(N)=N1 | 330 | – | 7.46 | 70 | – | 880 | inhibition in vivo at 50 mg/kg [6]: 14.5%; Activity [7]: 170.3 mm3; Activity [8]: 249.09 mm3; Activity (Mus musculus [9]): 23.47 g; inhibition in vivo at 50 mg/kg [10]: 36.8%; Activity [11]: 312.21 mm3; Activity (Mus musculus [12]): 23.17 g; Activity [13]: 468.15 mm3; Activity [14]: 117.63 mm3; Activity (Mus musculus [15]): 23.65 g; inhibition in vivo at 50 mg/kg [16]: 16.3%; inhibition in vivo at 50 mg/kg [17]: 32.8%; Activity [18]: 378.49 mm3; Activity (Mus musculus [19]): 23.63 g; Activity [20]: 574.09 mm3; Activity (Mus musculus [21]): 22.97 g; inhibition in vivo at 50 mg/kg [22]: 17.6%; inhibition in vivo at 50 mg/kg [23]: 24.7%; Activity (Mus musculus [24]): 23.53 g; Activity (Mus musculus [25]): 23.65 g |
| Cc1cc(C)cc(OCCCON2C(N)=NC(N)=NC23CCOCC3)c1 | 720 | 3570 | – | 710 | 680 | 190 | – |
| NC1=NC2(CCOCC2)N(OCCCOc2cccc(Br)c2)C(N)=N1 | 560 | 400 | – | 160 | 320 | 40 | – |
| NC1=NC2(CCOCC2)N(OCCCOc2cccc(Cl)c2)C(N)=N1 | 520 | 1020 | – | 150 | 150 | 120 | – |
| NC1=NC2(CCSCC2)N(OCCCOc2ccc(Cl)cc2Cl)C(N)=N1 | 330 | 60 | 4.08 | 210 | 1380 | 1 | – |
| NC1=NC2(CCSCC2)N(OCCCOc2ccc(Cl)cc2)C(N)=N1 | 430 | 350 | 18.3 | 580 | 1100 | 10 | – |
| NC1=NC2(CCSCC2)N(OCCCOc2ccc(Br)cc2)C(N)=N1 | 350 | 440 | 6.46 | 740 | 1400 | 20 | – |
| NC1=NC2(CCOCC2)N(OCCCOc2ccc(F)cc2)C(N)=N1 | 2380 | – | 46.6 | 1060 | – | 3280 | – |
| NC1=NC2(CCOCC2)N(OCCCOc2ccccc2Br)C(N)=N1 | 610 | 910 | – | 160 | 860 | 30 | – |
| NC1=NC2(CCOCC2)N(OCCCOc2ccc(Cl)c(Cl)c2)C(N)=N1 | 1240 | 590 | 8.23 | 790 | 380 | 90 | – |
| Cc1ccc(OCCCON2C(N)=NC(N)=NC23CCOCC3)cc1 | 2580 | – | 56.7 | 1060 | – | 2390 | – |
| NC1=NC2(CCOCC2)N(OCCCOc2ccccc2Cl)C(N)=N1 | 660 | 1430 | – | 2700 | 1750 | 70 | – |
| NC1=NC2(CCSCC2)N(OCCCOc2cccc(Cl)c2)C(N)=N1 | 260 | 130 | – | 60 | 90 | 1 | – |
| CC(C)(C)c1ccc(OCCCON2C(N)=NC(N)=NC23CCOCC3)cc1 | 870 | – | 3.72 | 500 | – | 1610 | – |
| NC1=NC2(CCSCC2)N(OCCCOc2cccc(Br)c2)C(N)=N1 | 200 | 60 | – | 50 | 90 | 1 | – |
| CC(C)(C)c1ccc(OCCCON2C(N)=NC(N)=NC23CCSCC3)cc1 | 280 | 1 | – | 1 | 70 | 1 | – |
| COc1cccc2c1C(=O)c1c(O)c3c(c(O)c1C2=O)C[C@@](O)(C(=O)CO)C[C@@H]3O[C@H]1C[C@H](N)[C@H](O)[C@H](C)O1 [DOXORUBICIN] | – | – | – | 120 | – | 310 | IC50 [2]: 720 nM |
